# Target: T1, recombinant Vps34 (Homo sapiens, UniProt Q8NEB9)
# T1 construct: purchased Invitrogen PV5126
# Experiment: Phosphorylation of phosphatidylinositol (PI) by Vps34 in vitro, ADP detected by TR-FRET (HTRF Transcreener ADP)
# Format: biochemical
# Details: 10 μM ATP, 55 μg/ml PI, approximately 3 nM Vps34, 1 hour at ambient temperature; absolute IC50, mean of two independent experiments; read-out: IC50 activity range
# T1 sequence (Q8NEB9 whole entry): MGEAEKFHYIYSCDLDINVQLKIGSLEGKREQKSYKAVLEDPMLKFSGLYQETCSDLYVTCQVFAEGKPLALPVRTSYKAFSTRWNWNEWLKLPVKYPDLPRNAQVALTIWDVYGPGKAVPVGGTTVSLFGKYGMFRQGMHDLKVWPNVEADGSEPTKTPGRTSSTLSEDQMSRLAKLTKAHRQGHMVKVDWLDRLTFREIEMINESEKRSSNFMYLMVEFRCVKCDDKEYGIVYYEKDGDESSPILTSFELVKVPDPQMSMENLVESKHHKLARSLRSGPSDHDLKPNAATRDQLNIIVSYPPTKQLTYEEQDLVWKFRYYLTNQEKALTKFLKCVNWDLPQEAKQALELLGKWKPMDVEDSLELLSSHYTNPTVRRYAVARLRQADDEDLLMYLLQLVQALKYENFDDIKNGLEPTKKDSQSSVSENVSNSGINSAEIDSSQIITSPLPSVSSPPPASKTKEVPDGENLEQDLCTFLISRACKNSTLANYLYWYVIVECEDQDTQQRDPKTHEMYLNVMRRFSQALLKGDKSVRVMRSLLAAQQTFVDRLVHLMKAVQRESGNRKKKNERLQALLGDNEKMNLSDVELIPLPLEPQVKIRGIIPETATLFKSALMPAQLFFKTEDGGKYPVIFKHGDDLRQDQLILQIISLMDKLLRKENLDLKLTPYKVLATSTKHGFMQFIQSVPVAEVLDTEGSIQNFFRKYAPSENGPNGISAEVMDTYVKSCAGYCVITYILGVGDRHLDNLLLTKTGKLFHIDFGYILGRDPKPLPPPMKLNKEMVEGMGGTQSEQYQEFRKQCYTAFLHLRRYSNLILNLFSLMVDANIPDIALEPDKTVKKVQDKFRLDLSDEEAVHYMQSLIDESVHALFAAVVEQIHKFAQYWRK
row,Compound,IC50
1,"C[C@@H]1COCCN1c1cc(=O)n2c(n1)N(CC(=O)c1cccc(F)n1)[C@H](C(F)(F)F)CC2 [Example 63, (S)-9-[2-(6-Fluoro-pyridin-2-yl)-2-oxo-ethyl]-2-((R)-3-methyl-morpholin-4-yl)-8-trifluoromethyl-6,7,8,9-tetrahydro-pyrimido[1,2-a]-pyrimidin-4-one]",< 10 nM
2,"C[C@@H]1COCCN1c1cc(=O)n2c(n1)N(Cc1ccnn1C(F)F)[C@H](C(F)(F)F)CC2 [Example 37, (S)-9-(2-Difluoromethyl-2H-pyrazol-3-ylmethyl)-2-((R)-3-methyl-morpholin-4-yl)-8-trifluoromethyl-6,7,8,9-tetrahydro-pyrimido[1,2-a]-pyrimidin-4-one]",< 10 nM
3,"Cc1nocc1CN1c2nc(N3CCOC[C@H]3C)cc(=O)n2CC[C@H]1C(F)(F)F [Example 12, (S)-9-(3-Methyl-isoxazol-4-ylmethyl)-2-((R)-3-methyl-morpholin-4-yl)-8-trifluoromethyl-6,7,8,9-tetrahydro-pyrimido[1,2-a]-pyrimidin-4-one]",< 10 nM
4,"CC(C)Oc1ncccc1CN1c2nc(N3CCOC[C@H]3C)cc(=O)n2CC[C@H]1C(F)(F)F [Example 230, (S)-9-(2-Isopropoxy-pyridin-3-ylmethyl)-2-((R)-3-methyl-morpholin-4-yl)-8-trifluoromethyl-6,7,8,9-tetrahydro-pyrimido[1,2-a]-pyrimidin-4-one]",< 10 nM
5,"C[C@@H]1COCCN1c1cc(=O)n2c(n1)N(CC(=O)C1CCCC1)[C@H](C(F)(F)F)CC2 [Example 244, (S)-9-(2-Cyclopentyl-2-oxoethyl)-2-((R)-3-methylmorpholin-4-yl)-8-trifluoromethyl-6,7,8,9-tetrahydro-pyrimido[1,2-a]-pyrimidin-4-one]",< 10 nM
6,"O=c1cc(N2CC3CCC(C2)O3)nc2n1CC[C@@H](C(F)(F)F)N2Cc1ccn(C(F)F)n1 [Example 167, (S)-9-(1-Difluoromethyl-1H-pyrazol-3-ylmethyl)-2-(8-oxa-3-aza-bicyclo[3.2.1]oct-3-yl)-8-trifluoromethyl-6,7,8,9-tetrahydro-pyrimido[1,2-a]-pyrimidin-4-one]",10 to 100 nM
7,"O=c1cc(N2CC3CCC(C2)O3)nc2n1CC[C@@H](C(F)(F)F)N2c1cc(F)cc(F)c1 [Example 161, (S)-9-(3,5-Difluoro-phenyl)-2-(8-oxa-3-azabicyclo[3.2.1]oct-3-yl)-8-trifluoromethyl-6,7,8,9-tetrahydro-pyrimido[1,2-a]-pyrimidin-4-one]",10 to 100 nM
8,"C[C@@H]1COCCN1c1cc(=O)n2c(n1)N(Cc1ccccn1)[C@H](C(F)(F)F)CC2 [Example 218, (S)-2-((R)-3-Methyl-morpholin-4-yl)-9-pyridin-2-ylmethyl-8-trifluoromethyl-6,7,8,9-tetrahydro-pyrimido[1,2-a]-pyrimidin-4-one]",< 10 nM
9,"CC1CN(c2nc3n(c(=O)c2F)CC[C@@H](C(F)(F)F)N3CC(=O)C2CC2)CCO1 (single isomer, unassigned) [Example 322]",10 to 100 nM
10,"C[C@@H]1COCCN1c1cc(=O)n2c(n1)N(CC(=O)c1nccs1)[C@H](C(F)(F)F)CC2 [Example 242, (S)-2-((R)-3-Methyl-morpholin-4-yl)-9-(2-oxo-2-thiazol-2-yl-ethyl)-8-trifluoromethyl-6,7,8,9-tetrahydro-pyrimido[1,2-a]-pyrimidin-4-one]",< 10 nM
11,"C[C@@H]1COCCN1c1cc(=O)n2c(n1)N(CC(N)=O)[C@H](C(F)(F)F)CC2 [Example 263, 2-[(S)-8-((R)-3-Methyl-morpholin-4-yl)-6-oxo-2-trifluoromethyl-3,4-dihydro-2H,6H-pyrimido[1,2-a]-pyrimidin-1-yl]-acetamide]",> 100 nM
12,"CC(C)CCC(=O)CN1c2nc(N3CCOC[C@H]3C)cc(=O)n2CC[C@H]1C(F)(F)F [Example 290, (S)-2-((R)-3-Methyl-morpholin-4-yl)-9-(5-methyl-2-oxo-hexyl)-8-trifluoromethyl-6,7,8,9-tetrahydro-pyrimido[1,2-a]-pyrimidin-4-one]",< 10 nM
13,"CC(C)CC(=O)CN1c2nc(N3CCOC[C@H]3C)c(F)c(=O)n2CC[C@H]1C(F)(F)F [Example 280, (S)-3-Fluoro-2-((R)-3-methylmorpholin-4-yl)-9-(4-methyl-2-oxo-pentyl)-8-trifluoromethyl-6,7,8,9-tetrahydro-pyrimido[1,2-a]-pyrimidin-4-one]",< 10 nM
14,"C[C@@H]1COCCN1c1cc(=O)n2c(n1)N(Cc1ccc(Cl)s1)[C@H](C(F)(F)F)CC2 [Example 98, (S)-9-(5-Chloro-thiophen-2-ylmethyl)-2-((R)-3-methyl-morpholin-4-yl)-8-trifluoromethyl-6,7,8,9-tetrahydro-pyrimido[1,2-a]-pyrimidin-4-one]",< 10 nM
15,"C[C@@H]1COCCN1c1cc(=O)n2c(n1)N(CC(=O)c1cccnc1)[C@H](C(F)(F)F)CC2 [Example 11, (S)-2-((R)-3-Methyl-morpholin-4-yl)-9-(2-oxo-2-pyridin-3-yl-ethyl)-8-trifluoromethyl-6,7,8,9-tetrahydro-pyrimido[1,2-a]-pyrimidin-4-one]",< 10 nM
16,"C[C@@H]1COCCN1c1cc(=O)n2c(n1)N(Cc1ccncc1)[C@H](C(F)(F)F)CC2 [Example 216, (S)-2-((R)-3-Methyl-morpholin-4-yl)-9-pyridin-4-ylmethyl-8-trifluoromethyl-6,7,8,9-tetrahydro-pyrimido[1,2-a]-pyrimidin-4-one]",10 to 100 nM
17,"CC(C)OCCN1c2nc(N3CCOC[C@H]3C)cc(=O)n2CC[C@H]1C(F)(F)F [Example 300, (S)-9-(2-Isopropoxy-ethyl)-2-((R)-3-methyl-morpholin-4-yl)-8-trifluoromethyl-6,7,8,9-tetrahydro-pyrimido[1,2-a]-pyrimidin-4-one]",< 10 nM
18,"C[C@@H]1COCCN1c1cc(=O)n2c(n1)N(c1ccc(C(F)(F)F)nc1)[C@H](C(F)(F)F)CC2 [Example 81, (S)-2-((R)-3-Methyl-morpholin-4-yl)-8-trifluoromethyl-9-(6-trifluoromethylpyridin-3-yl)-6,7,8,9-tetrahydro-pyrimido[1,2-a]-pyrimidin-4-one]",< 10 nM
19,"C[C@@H]1COCCN1c1cc(=O)n2c(n1)N(Cc1ccno1)[C@H](C(F)(F)F)CC2 [Example 36, (S)-9-Isoxazol-5-yl-methyl-2-((R)-3-methylmorpholin-4-yl)-8-trifluoromethyl-6,7,8,9-tetrahydro-pyrimido[1,2-a]-pyrimidin-4-one]",< 10 nM
20,"C[C@@H]1COC[C@@H](C)N1c1cc(=O)n2c(n1)N(Cc1ccno1)[C@H](C(F)(F)F)CC2 [Example 9, (S)-2-((3R,5R)-3,5-Dimethylmorpholin-4-yl)-9-isoxazol-5-yl-methyl-8-trifluoromethyl-6,7,8,9-tetrahydro-pyrimido[1,2-a]-pyrimidin-4-one]",< 10 nM
21,"CO/N=C(\CN1c2nc(N3CCOC[C@H]3C)cc(=O)n2CC[C@H]1C(F)(F)F)C1CC1 (single isomer, unassigned) [Example 307]",< 10 nM
22,"C[C@@H]1COCCN1c1nc2n(c(=O)c1F)CC[C@@H](C(F)(F)F)N2CC(=O)c1nccs1 [Example 68, (S)-3-Fluoro-2-((R)-3-methylmorpholin-4-yl)-9-(2-oxo-2-thiazol-2-yl-ethyl)-8-trifluoromethyl-6,7,8,9-tetrahydro-pyrimido[1,2-a]-pyrimidin-4-one]",< 10 nM
23,"C[C@@H]1COCCN1c1nc2n(c(=O)c1F)[C@@H](C(F)(F)F)CCN2c1ccc(OC(F)F)nc1 [Example 127, (R)-9-(6-Difluoromethoxy-pyridin-3-yl)-3-fluoro-2-((R)-3-methyl-morpholin-4-yl)-6-trifluoromethyl-6,7,8,9-tetrahydro-pyrimido[1,2-a]-pyrimidin-4-one]",< 10 nM
24,"Cc1nc(CN2c3nc(N4CCOC[C@H]4C)cc(=O)n3CC[C@@]2(C)C(F)(F)F)no1 [Example 211, (S)-8-Methyl-2-((R)-3-methylmorpholin-4-yl)-9-(5-methyl-[1,2,4]oxadiazol-3-yl-methyl)-8-trifluoromethyl-6,7,8,9-tetrahydro-pyrimido[1,2-a]-pyrimidin-4-one]",< 10 nM
25,"C[C@@H]1COCCN1c1nc2n(c(=O)c1F)[C@@H](C(F)(F)F)CCN2CC(=O)C1CC1 [Example 120, (R)-9-(2-Cyclopropyl-2-oxoethyl)-3-fluoro-2-((R)-3-methyl-morpholin-4-yl)-6-trifluoromethyl-6,7,8,9-tetrahydro-pyrimido[1,2-a]-pyrimidin-4-one]",< 10 nM
26,"O=c1cc(N2CC3CCC(C2)O3)nc2n1CC[C@@H](C(F)(F)F)N2Cc1ccno1 [Example 164, (S)-9-Isoxazol-5-yl-methyl-2-(8-oxa-3-azabicyclo[3.2.1]oct-3-yl)-8-trifluoromethyl-6,7,8,9-tetrahydro-pyrimido[1,2-a]-pyrimidin-4-one]",10 to 100 nM
27,"CON(C)C(=O)CN1c2nc(N3CCOC[C@H]3C)cc(=O)n2CC[C@H]1C(F)(F)F [Example 196, N-Methoxy-N-methyl-2-[(S)-8-((R)-3-methyl-morpholin-4-yl)-6-oxo-2-trifluoromethyl-3,4-dihydro-2H,6H-pyrimido[1,2-a]-pyrimidin-1-yl]-acetamide]",< 10 nM
28,"CONC(=O)CN1c2nc(N3CCOC[C@H]3C)cc(=O)n2CC[C@H]1C(F)(F)F [Example 197, N-Methoxy-2-[(S)-8-((R)-3-methyl-morpholin-4-yl)-6-oxo-2-trifluoromethyl-3,4-dihydro-2H,6H-pyrimido[1,2-a]-pyrimidin-1-yl]-acetamide]",10 to 100 nM
29,"C[C@@H]1COCCN1c1cc(=O)n2c(n1)N(CC(=O)c1ncccc1F)[C@H](C(F)(F)F)CC2 [Example 60, (S)-9-[2-(3-Fluoro-pyridin-2-yl)-2-oxo-ethyl]-2-((R)-3-methyl-morpholin-4-yl)-8-trifluoromethyl-6,7,8,9-tetrahydro-pyrimido[1,2-a]-pyrimidin-4-one]",< 10 nM
30,"C[C@@H]1COCCN1c1nc2n(c(=O)c1F)CC[C@@H](C(F)(F)F)N2Cc1cncc(F)c1 [Example 57, (S)-3-Fluoro-9-(5-fluoropyridin-3-yl-methyl)-2-((R)-3-methylmorpholin-4-yl)-8-trifluoromethyl-6,7,8,9-tetrahydro-pyrimido[1,2-a]-pyrimidin-4-one]",< 10 nM
